Values quoted from earlier work in patent US20090022794A1, “Topiramate Tablet Formulation” (priority 2005, published 2009).
≈ marks a conversion by molar mass, not a printed value.

Key:
[1] = relative humidity as high as 90%

Row | moisture picked up [1] | solubility in alkaline solutions, acetone, dimethylsulfoxide and ethanol (alkaline solutions, acetone, dimethylsulfoxide, ethanol) | solubility in water (water) [µg/mL] | SMILES
1 | less than 1% | – | – | OC[C@@H](O)[C@@H](O)[C@H](O)[C@H](O)CO [Mannitol]
2 | – | soluble | 9800 (≈ 28.9 mM) | CC1(C)O[C@@H]2[C@@H](CO[C@@]3(COS(N)(=O)=O)OC(C)(C)O[C@@H]23)O1 [Topiramate, 2,3:4,5-Bis-O-(1-methylethylidene)-β-D-fructopyranose sulfamate]
